The target in test [1] is T1, recombinant human purine nucleoside phosphorylase (rhPNPase) (Homo sapiens, UniProt P00491).
T1 construct: gene PNP
T1 sequence (P00491 1-289): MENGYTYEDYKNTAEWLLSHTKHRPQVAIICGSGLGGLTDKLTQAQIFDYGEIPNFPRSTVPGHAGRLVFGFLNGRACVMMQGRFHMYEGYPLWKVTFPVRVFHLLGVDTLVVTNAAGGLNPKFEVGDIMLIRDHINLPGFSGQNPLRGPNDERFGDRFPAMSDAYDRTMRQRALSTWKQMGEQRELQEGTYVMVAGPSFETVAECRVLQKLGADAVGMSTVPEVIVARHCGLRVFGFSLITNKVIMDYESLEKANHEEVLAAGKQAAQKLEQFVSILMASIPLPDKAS
Nature of the test: biochemical.

Test [2] concerns the target T1, recombinant human purine nucleoside phosphorylase (rhPNPase). Nature of the test: HPLC-UV enzyme kinetics, guanosine as substrate (Ki […] with inosine), competitive inhibition fit. The class given is biochemical.
Test [3] has the same target. Nature of the test: HPLC-UV enzyme kinetics, competitive inhibition of inosine metabolism; also Michaelis-Menten turnover to 8-aminohypoxanthine. The class given is biochemical.
The target is the same in test [4]. Nature of the test: Michaelis-Menten kinetics by HPLC-UV; also inhibits metabolism of 8-aminoinosine. Format: biochemical.

Regarding `Nc1nc2[nH]c(N)nc2c(=O)[nH]1` [8AG, 8-aminoguanine], the inhibition constant Ki in test [1] amounted to 2800 nM.

As for `Nc1nc2nc[nH]c(=O)c2[nH]1` [8AHX, 8-aminohypoxanthine], the Ki in test [2] was 20 µM.

Regarding `Nc1nc2c(O)ncnc2n1[C@@H]1O[C@H](CO)[C@@H](O)[C@H]1O` [8AI, 8-aminoinosine], the Ki in test [3] came to 35 µM.

In the case of `O=c1[nH]cnc2c1ncn2[C@@H]1O[C@H](CO)[C@@H](O)[C@H]1O` [inosine], in test [4], the “Michaelis-Menten kinetics by HPLC-UV; also inhibits metabolism of 8-aminoinosine” value is recorded as “inosine competitively inhibits the metabolism of 8-aminoinosine to 8-aminohypoxanthine”.

For the origin of these results see PMC9639651, “8-Aminoinosine and 8-Aminohypoxanthine Inhibit Purine Nucleoside Phosphorylase and Exert Diuretic and Natriuretic Activity” (The Journal of Pharmacology and Experimental Therapeutics, 2022).
